The source of these data is publication PMC9820082, “Synthesis of 9-Hydroxy-1H-Benzo[f]chromene Derivatives with Effective Cytotoxic Activity on MCF7/ADR, P-Glycoprotein Inhibitors, Cell Cycle Arrest and Apoptosis Effects” (International Journal of Molecular Sciences, 2022).

Assay type in all cases: cell-based
The subject of one data set is P-glycoprotein (P-gp). Put plainly: P-gp content in MCF-7/ADR cell lysate (human P-gp ELISA kit). The conditions noted are these: for inhibition at 48 h, 12.5 µM / inhibition at 48 h, 25 µM / inhibition at 48 h, 50 µM / inhibition at 48 h, 100 µM / IC50 at 48 h: human, MCF-7/ADR cells (cell lysate), MCF-7/ADR cell lysate, ELISA; for inhibition at 48 h, 12.5 µM: Conc. 12.5 (µM); for inhibition at 48 h, 25 µM: Conc. 25 (µM); for inhibition at 48 h, 50 µM: Conc. 50 (µM); for inhibition at 48 h, 100 µM: Conc. 100 (µM); for inhibitory effect on the P-gp level: MCF-7/ADR, in words. As to the method: P-glycoprotein (P-gp)-mediated multidrug resistance (MDR) is a phenomenon in which cells become resistant to structurally and mechanistically unrelated drugs, resulting in low intracellular drug concentrations. It is one of the noteworthy problems in malignant tumor clinical therapeutics.
The content of P-gp in the MCF-7/ADR cell lysates after incubation with varying conc. (12.5–100 µM) of tested compounds 4a, 4c, 4d, 4e, 4g and 4i following exposure for 48 hr was determined using a commercial human P-gp (Permeability Glycoprotein) ELISA Kit (MBS2506188, MyBioSource Inc., San Diego, CA, USA). Absorption was recorded at 450 nm with a Spectramax Gemini fluorescence microplate reader (Molecular Devices, Sunnyvale, CA, USA).
(ELISA stands for enzyme-linked immunosorbent assay.)

For data set [1], the system named is PC-3 (human prostate adenocarcinoma, metastatic). Put plainly: MTT colorimetric cytotoxicity assay, PC-3. As to conditions: for IC50: Homo sapiens, MTT, 24 h incubation, mean ± standard error; for times more active than Doxorubicin / times more active than Vinblastine: PC-3 cells, ratio of IC50 values. How it is done:
(§1) Three human cancer cell lines, PC-3 (human prostate adenocarcinoma, metastatic), […], were used to test the anti-proliferative activity of β-enaminonitrile (4a–p) using the MTT colorimetric assay at concentrations ranging from 0–100 μM. The representative active cytotoxic substances 4a, 4c, 4d, 4e, 4g, 4i, 4k and 4o were also tested against two normal cell lines, human fetal lung (HFL-1) and human diploid fibroblasts (WI-38), as well as Adriamycin (ADR)-resistant human breast cancer cells (MCF-7/ADR). The reference cytotoxic agents, Vinblastine and Doxorubicin, were used in the tests.
(§2) The tumor cell lines MCF-7, HepG-2, PC-3 MCF-7/ADR, HFL-1 and (WI-38) were obtained from the American Type Culture Collection (ATCC, Rockville, MD, USA). The cells were grown on RPMI-1640 medium supplemented with 10% inactivated fetal calf serum and 50 µg/mL gentamycin. The cells were maintained at 37 ^οC in a humidified atmosphere with 5% CO2 and were subcultured two to three times a week.
(§3) The cytotoxic activity was appraised using the 3-(4,5-dimethylthiazol-2-yl)-2,5-diphenyltetrazolium bromide (MTT) colorimetric assay for the antitumor cell lines, as reported previously, and the ELISA assay for MCF-7/ADR [69].
Background: Tetrazolium assays rely on reduction of a dye to a coloured formazan, in cell work by metabolically active cells.

Data set [2] has as its target T1, P-gp activity (efflux function) (Homo sapiens, UniProt P08183).
T1 construct: measuring intracellular accumulation of Rhodamine 123 in MCF-7/ADR cells; endogenous in cells; host or cells: MCF-7/ADR (Adriamycin-resistant human breast cancer cells)
Put plainly: Rhodamine 123 accumulation assay in MCF-7/ADR cells. The conditions noted are these: 4 h with compound then 5.25 μM Rho123 for 30 min. As to the method:
Furthermore, the reversion of P-gp-mediated multidrug resistance could be achieved by the down-regulation of P-gp expression and/or P-gp efflux function inhibition.
Briefly, resistant cancer cells were harvested, washed twice and counted. […] of each well was measured using a Spectramax Gemini fluorescence microplate reader (Molecular Devices, Sunnyvale, CA, USA). The total content of Rhodamine in each sample was determined by comparison with a Rhodamine standard curve.

The test system of data set [3] is human diploid fibroblasts (WI-38). Put plainly: Cytotoxicity against normal cell line WI-38. The conditions noted are these: 24 h incubation, mean ± standard error. How it is done: as §1, §2, §3
The subject of data set [4] is Adriamycin (ADR)-resistant human breast cancer cells (MCF-7/ADR). Put plainly: Cytotoxicity against MCF-7/ADR cells. As to conditions: 24 h exposure, mean ± standard error. How it is done:
as §1, §2, §3

Where [5] appears, read: Homo sapiens, NCI/ADR-RES, 24 h.

For orientation: inhibition means the change of the read-out against control, counted positive when it falls. High values mean a response far below the control, low ones a response near the control. In general, IC50 refers to the midpoint of a concentration-inhibition curve.

T1 sequence (P08183 whole entry): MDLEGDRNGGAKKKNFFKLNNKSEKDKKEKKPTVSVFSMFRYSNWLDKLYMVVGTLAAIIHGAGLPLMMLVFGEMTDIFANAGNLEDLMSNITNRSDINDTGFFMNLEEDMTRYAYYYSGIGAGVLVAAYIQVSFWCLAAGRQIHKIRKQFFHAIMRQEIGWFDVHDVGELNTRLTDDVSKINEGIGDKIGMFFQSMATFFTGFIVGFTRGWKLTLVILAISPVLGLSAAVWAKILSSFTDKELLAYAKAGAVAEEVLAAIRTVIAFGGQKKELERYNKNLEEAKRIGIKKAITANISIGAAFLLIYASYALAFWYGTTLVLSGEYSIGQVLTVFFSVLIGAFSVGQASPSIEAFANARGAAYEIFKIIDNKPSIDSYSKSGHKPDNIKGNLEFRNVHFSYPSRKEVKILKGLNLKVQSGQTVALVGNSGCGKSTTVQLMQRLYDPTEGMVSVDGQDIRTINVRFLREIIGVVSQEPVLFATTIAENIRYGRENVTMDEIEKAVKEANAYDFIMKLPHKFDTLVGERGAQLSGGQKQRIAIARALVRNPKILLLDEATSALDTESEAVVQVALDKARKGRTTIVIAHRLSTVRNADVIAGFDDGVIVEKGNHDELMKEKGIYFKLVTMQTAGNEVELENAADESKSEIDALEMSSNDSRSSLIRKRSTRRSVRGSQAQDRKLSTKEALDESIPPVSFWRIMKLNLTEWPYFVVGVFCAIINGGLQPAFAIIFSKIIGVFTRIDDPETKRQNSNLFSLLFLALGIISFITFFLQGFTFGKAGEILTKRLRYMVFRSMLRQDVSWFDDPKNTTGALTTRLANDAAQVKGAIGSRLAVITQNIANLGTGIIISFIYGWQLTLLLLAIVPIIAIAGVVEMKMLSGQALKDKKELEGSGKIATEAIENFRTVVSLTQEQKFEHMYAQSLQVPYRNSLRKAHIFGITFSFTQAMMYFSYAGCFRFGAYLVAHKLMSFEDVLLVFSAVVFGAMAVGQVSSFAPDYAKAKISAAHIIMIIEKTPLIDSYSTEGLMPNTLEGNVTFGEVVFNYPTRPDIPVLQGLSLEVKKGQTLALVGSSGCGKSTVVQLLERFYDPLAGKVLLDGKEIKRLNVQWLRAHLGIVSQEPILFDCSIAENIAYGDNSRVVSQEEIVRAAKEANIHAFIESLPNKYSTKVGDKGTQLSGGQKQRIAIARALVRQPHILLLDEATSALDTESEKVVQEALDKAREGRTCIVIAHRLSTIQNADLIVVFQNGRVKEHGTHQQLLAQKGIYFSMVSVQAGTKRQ

In the data set on P-glycoprotein (P-gp), `N#CC1=C(N)Oc2ccc3ccc(O)cc3c2C1c1ccc(Cl)c(Cl)c1` (centres unmarked) [4g, 3-Amino-1-(3,4-Dichlorophenyl)-9-Hydroxy-1H-Benzo[f]chromene-2-Carbonitrile] registered an inhibition at 48 h, 12.5 µM of 23%; an inhibition at 48 h, 25 µM of 34%; an inhibition at 48 h, 50 µM of 66%; an inhibition at 48 h, 100 µM of 83%. The IC50 at 48 h in the data set with P-glycoprotein (P-gp) was found to be 34.6 µM. This compound had an IC50 in data set [1] of 2.4 ± 0.1 µM. In data set [2], the IC50 amounted to 36.7 µM. In data set [3] (Homo sapiens, WI-38, 24 h), inhibition was half-maximal at 26.3 ± 0.2 µM (IC50). Moreover, the IC50 in data set [4] (setting [5]) came to 11.5 ± 0.4 µM.

`N#CC1=C(N)Oc2ccc3ccc(O)cc3c2C1c1ccc(Cl)cc1Cl` (centres unmarked) [4d, 3-Amino-1-(2,4-Dichlorophenyl)-9-Hydroxy-1H-Benzo[f]chromene-2-Carbonitrile]: in the data set with P-glycoprotein (P-gp), the “inhibitory effect on the P-gp level” value was “almost negligible inhibitory effect”; the inhibition at 48 h, 12.5 µM was found to be 10%; the inhibition at 48 h, 25 µM turned out to be 25%; the inhibition at 48 h, 50 µM turned out to be 43%. In the data set with P-glycoprotein (P-gp), this compound displayed an inhibition at 48 h, 100 µM of 69% and an IC50 at 48 h of 65.9 µM. In data set [1], inhibition was half-maximal at 2 ± 0.7 µM (IC50). Further, in data set [2], the half-inhibitory concentration (IC50) is 46.6 µM. The compound also came in with an IC50 in data set [3] of 39.1 ± 0.2 µM. Besides, the IC50 in data set [4] (setting [5]) amounted to 10.4 ± 0.3 µM.

As for `N#CC1=C(N)Oc2ccc3ccc(O)cc3c2C1c1cccc(Cl)c1Cl` (centres unmarked) [4c, 3-Amino-1-(2,3-Dichlorophenyl)-9-Hydroxy-1H-Benzo[f]chromene-2-Carbonitrile], in the data set with P-glycoprotein (P-gp), the “inhibitory effect on the P-gp level” value is recorded as “strong inhibitory effect”; the inhibition at 48 h, 12.5 µM was 26%; the inhibition at 48 h, 25 µM turned out to be 37%; the inhibition at 48 h, 50 µM is 71%. In the data set on P-glycoprotein (P-gp), this compound displayed an inhibition at 48 h, 100 µM of 88% and an IC50 at 48 h of 30.8 µM. In addition, 2.9 ± 0.7 µM corresponded to half-maximal inhibition in data set [1] (IC50). Also, the IC50 in data set [2] turned out to be 28.7 µM. Also, in data set [3] (Homo sapiens, WI-38, 24 h), the IC50 amounted to 29.4 ± 0.1 µM. In data set [4], this compound displayed an IC50 of 12.4 ± 0.1 µM. The same compound returned an IC50 in data set [4] (setting [5]) of 8.6 to 11.5 µM.

Take `N#CC1=C(N)Oc2ccc3ccc(O)cc3c2C1c1cc(Br)cc(Br)c1` (centres unmarked) [4i, 3-Amino-1-(3,5-Dibromophenyl)-9-Hydroxy-1H-Benzo[f]chromene-2-Carbonitrile]: in the data set on P-glycoprotein (P-gp), the “inhibitory effect on the P-gp level” value is given as “almost negligible inhibitory effect”; the inhibition at 48 h, 12.5 µM was found to be 15%; the inhibition at 48 h, 25 µM was found to be 30%; the inhibition at 48 h, 50 µM was determined as 48%. In the data set on P-glycoprotein (P-gp), this compound came in with an inhibition at 48 h, 100 µM of 76% and an IC50 at 48 h of 53.6 µM. In data set [1], 0.8 ± 0.1 µM corresponded to half-maximal inhibition (IC50), the “times more active than Doxorubicin” value was 1.6 times and the “times more active than Vinblastine” value is 9.4 times. For the same compound, the IC50 in data set [2] was 55.3 µM. Also, in data set [3] (Homo sapiens, WI-38, 24 h), the midpoint of inhibition, the IC50, lay at 29.2 ± 1.2 µM. This compound also had an IC50 in data set [4] (setting [5]) of 8.6 ± 0.7 µM.

For the compound `N#CC1=C(N)Oc2ccc3ccc(O)cc3c2C1c1ccc(F)cc1F` (centres unmarked) [4a, 3-Amino-1-(2,4-Difluorophenyl)-9-Hydroxy-1H-Benzo[f]chromene-2-Carbonitrile], in the data set with P-glycoprotein (P-gp), the “inhibitory effect on the P-gp level” value is “strong inhibitory effect”; the inhibition at 48 h, 12.5 µM worked out at 25%; the inhibition at 48 h, 25 µM is 37%; the inhibition at 48 h, 50 µM turned out to be 68%. Besides, in the data set on P-glycoprotein (P-gp), the inhibition at 48 h, 100 µM amounted to 80% and 32 µM corresponded to half-maximal inhibition (IC50 at 48 h). For the same compound, in data set [1], the midpoint of inhibition, the IC50, lay at 1.1 ± 0.4 µM; the “times more active than Doxorubicin” value is reported as 1.2 times; the “times more active than Vinblastine” value was found to be 6.8 times. Also, the IC50 in data set [2] turned out to be 23.3 µM. In data set [3], this compound had an IC50 of 34.3 ± 1.2 µM. In data set [3] (Homo sapiens, WI-38, 24 h), this compound came in with an IC50 of 19.1 to 30.1 µM. In addition, the IC50 in data set [4] (setting [5]) was 10.8 ± 0.4 µM.

Consider `N#CC1=C(N)Oc2ccc3ccc(O)cc3c2C1c1cc(Cl)ccc1Cl` (centres unmarked) [4e, 3-Amino-1-(2,5-Dichlorophenyl)-9-Hydroxy-1H-Benzo[f]chromene-2-Carbonitrile], for which, in the data set with P-glycoprotein (P-gp), the “inhibitory effect on the P-gp level” value was “strong inhibitory effect”; the inhibition at 48 h, 12.5 µM is 36%; the inhibition at 48 h, 25 µM stood at 54%; the inhibition at 48 h, 50 µM was found to be 80%. In the data set with P-glycoprotein (P-gp), this compound came in with an inhibition at 48 h, 100 µM of 91% and an IC50 at 48 h of 18.7 µM. This compound also returned an IC50 in data set [1] of 2.1 ± 0.5 µM. Also, the IC50 in data set [2] was 14.6 µM. The same compound registered an IC50 in data set [3] (Homo sapiens, WI-38, 24 h) of 25.4 ± 1.1 µM. This compound displayed an IC50 in data set [4] (setting [5]) of 10 ± 0.3 µM.
